Data reported in patent US5614627A, “Quinazoline compounds” (Eisai Co., Ltd., priority 1993, dated 1997).
Structures can show the parent of a compound that is named as a salt.

Target: T1, calmodulin-dependent cGMP-phosphodiesterase (CaM-PDE) (Sus scrofa, UniProt A0A5G2RLV3)
T1 construct: prepared from swine aorta; from tissue; host or cells: swine aorta
Experiment: enzyme-inhibitory activity with calmodulin-dependent cGMP-phosphodiesterase (CaM-PDE) obtained from swine aorta
Assay type: biochemical
Conditions: 1 μM cGMP as substrate, 1 mM Ca++, calmodulin 250 U/ml, DMSO 4% or below
Method: Study on enzyme-inhibitory activity with calmodulin-dependent cGMP-phosphodiesterase obtained from swine aorta The enzyme activity of calmodulin-dependent cGMP-phosphodiesterase (hereinafter referred to CaM-PDE) prepared from swine aorta was determined according to the method of Thompson et al. The emzyme activity was determined in the presence of 1 mM of calcium ion (Ca^++) and calmodulin (250 U/ml) by the use of 1 μM of cGMP as the substrate. The compound of the present invention was dissolved in DMSO and added to the reaction liquid. The final concentration of DMSO in the reaction solution was adjusted to 4% or below. The preparation of the CaM-PDE was effected according to the method [[…]. and Saito, I., Isolation of cyclic nucleotide phosphodiesterase isozymes from pig aorta, Biochem. Pharmacol. in press] by the use of swine aorta. The CaM-PDE inhibitory activity of the compounds of the present invention as determined by the above method are given in Table 1.

| IC50 [nM] | Compound |
| --- | --- |
| 170 | CCCNc1ncnc2c(OC)c(OC)c(OC)cc12 [Example 40, 4-Propylamino-6,7-trimethoxyquinazoline] |
| 420 | COc1cc2c(N3CCC(C(=O)O)CC3)ncnc2c(OC)c1OC [Example 20, 4-(4-Carboxypiperidino)-6,7,8-trimethoxyquinazoline] |
| 6400 | COc1cc2c(NCCCCC#N)ncnc2c(OC)c1OC [Example 32, 4-(4-Cyanobutyl)amino-6,7,8-trimethoxyquinzaoline] |
| 2370 | COc1cc2c(NCCC(=O)O)ncnc2c(OC)c1OC [Example 13, 4-(2-Carboxyethyl)amino-6,7,8-trimethoxyquinazoline] |
| 1100 | COc1cc2c(N3CCC(=O)CC3)ncnc2c(OC)c1OC [Example 61, 4-(4-Oxopiperidino)-6,7,8-trimethoxyquinazoline] |
| 480 | COc1cc2c(NCCCC(=O)O)ncnc2c(OC)c1OC [Example 2, 4-(3-Carboxypropyl)amino-6,7,8-trimethoxyquinazoline] |
| 4300 | CCN(CC)c1nc(Cl)nc2c(OC)c(OC)c(OC)cc12 [Example 51, 2-Chloro-4-diethylamino-6,7,8-trimethoxyquinazoline] |
| 11600 | COc1cc2c(N3CCC(C(=O)c4ccc(F)cc4)CC3)ncnc2c(OC)c1OC [Example 57, 4-[4-(4-Fluorobenzoyl)piperidino]-6,7,8-trimethoxyquinazoline] |
| 1290 | COc1cc2c(NCCCCC(=O)O)ncnc2c(OC)c1OC [Example 14, 4-(4-Carboxybutyl)amino-6,7,8-trimethoxyuinazoline] |
| 3500 | COc1cc2c(NCCCCCCC(=O)O)ncnc2c(OC)c1OC [Example 12, 4-(6-Carboxyhexyl)amino-6,7,8-trimethoxyquinazoline] |
| 4000 | COc1cc2c(N3CCOCC3)ncnc2c(OC)c1OC [Example 68, 4-Morpholino-6,7,8-trimethoxyquinazoline hydrochloride] |
| 1900 | COc1cc2c(NCCCO)ncnc2c(OC)c1OC [Example 35, 4-(3-Hydroxypropyl)amino-6,7.8-trimethoxyquinazoline] |
| 300 | CCN(CC)c1ncnc2c(OC)c(OC)c(OC)cc12 [Example 41, 4-Diethylamino-6,7,8-trimethoxyquinazoline hydrochloride] |
| 2800 | COc1cc2c(N3CCC(C(O)c4ccc(F)cc4)CC3)ncnc2c(OC)c1OC (stereo not drawn) [Example 58, 4-[4-(4-Fluoro-α-hydroxybenzyl)piperidino]-6,7,8-trimethoxyquinazolin] |
| 1650 | COc1cc2c(NCCCCCC(=O)O)ncnc2c(OC)c1OC [Example 16, 4-(5-Carboxypentyl)amino-6,7,8-trimethoxyquinazoline] |
| 7900 | Clc1ccc2ncnc(NCCCn3ccnc3)c2c1 [Example 38, 6-Chloro-4-[3-(imidazol-1-yl)propyl]aminoquinazoline] |
| 53900 | O=C(O)CCCCCNc1ncnc2ccc(Cl)cc12 [Example 10, 4-(5-Carboxypentyl)amino-6-chloroquinazolne] |
| 2350 | CCOC(=O)CCCCCNc1ncnc2c(OC)c(OC)c(OC)cc12 [Example 3, 4-(5-Ethoxycarbonylpentyl)amino-6,7,8-trimethoxyquinazoline] |
| 4620 | CCOC(=O)CCNc1ncnc2c(OC)c(OC)c(OC)cc12 [Example 7, 4-(2-Ethoxycarbonylethyl)amino-6,7,8-trimethoxyquinazoline] |
| 10700 | COc1cc2c(N3CCN(c4ncccn4)CC3)ncnc2c(OC)c1OC [Example 65, 4-[4-(2-Pyrimidyl)piperazin-1-yl]-6,7,8-trimethoxyquinazoline] |
| 740 | CCN(CC)c1ncnc2c(OC)cc(OC)cc12 [Example 43, 4-Diethylamino-6,8-dimethoxyquinazoline hydrochloride] |
| 730 | COc1cc2c(N(C)CCCC(=O)O)ncnc2c(OC)c1OC [Example 18, 4-[N-(3-Carboxypropyl)-N-methylaminol-]6,7,8, -trimethoxyquinazoline] |
| 740 | COc1cc2c(N3CCC(O)CC3)ncnc2c(OC)c1OC [Example 62, 4-(4-Hydroxypiperidino)-6,7,8-trimethoxyquinazoline] |
| 3620 | COc1cc2c(NCCCCCCCC(=O)O)ncnc2c(OC)c1OC [Example 15, 4-(7-Carboxyheptyl)amino-6,7,8,-trimethoxyquinazoline] |
